# According to PubChem BioAssay AID540258 (Broad Institute, 2011):
# Active and inactive are the calls of the source.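 Rule for the calls: active = fitted curve reaching 40% activation at or below the top valid dose tested; inconclusive = flat curve at 30 to 70% activation, or poor fit; inactive = the rest.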
# Test system: SK-MEL-5 TRPM1 promoter luciferase reporter, 24 h
# Assay: MITF activators via TRPM1 promoter reporter, dose response, SK-MEL-5 cells, luciferase, cherry-pick samples (AID 540258);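 note: potency for activators that raise TRPM1 promoter luciferase signal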
row,Structure (SMILES),AC40
1,Cc1ccc(C(=O)O/N=C(\N)c2ccc(Br)cc2)cc1,7.84 µM
2,O=C(N=Nc1c(O)n(Cc2ccccc2)c2ccccc12)c1ccc(O)cc1,0.86 µM
3,CC(C)c1ccc2nc(N)sc2c1,> 35 µM (inactive)
4,CN(C(=O)c1cc(-c2ccccc2)on1)C1CCCCC1,1.12 µM
5,O=c1c2ccccc2oc2cc(NCCCn3ccnc3)ccc12,0.989 µM
6,O=c1c2ccccc2oc2c1ccc1ccccc12,10.5 µM
7,COc1ccc(/C=N/Nc2nccnc2Cl)c(OC)c1,2.68 µM
8,c1ccc2c(Nc3nnc(-c4ccncc4)s3)cccc2c1,4.9 µM
9,Cc1ccc(Sc2cnc3ccccc3n2)cc1,1.43 µM
10,Fc1cc(Br)ccc1COc1ccc(-c2nnco2)cc1,3.08 µM
11,c1csc(-c2noc(COc3ccc4c(c3)CCCC4)n2)c1,2.14 µM
12,COc1ccc(Br)c(C(=O)Nc2nc3ccccc3[nH]2)c1,4.94 µM
13,COc1ccc(-c2ccc(C(=O)C3CC3)cc2)cc1,0.775 µM
14,COc1ccc(-c2nn(-c3ccccc3)cc2C#N)cc1,3.24 µM
15,O=C(N/N=C/c1ccccc1C(F)(F)F)c1ccc(O)cc1,3.44 µM
16,Cc1ccc(N(C)/N=C/c2ccc(Cl)cc2Cl)nn1,34.2 µM
17,N#Cc1ccc(NC(=O)c2cccs2)nc1,16.8 µM
18,COc1ccc(/C(C)=N/Nc2nncc3ccccc23)cc1,0.58 µM
19,COc1ccc(NC(=O)n2ncc3cc(Cl)ccc32)cc1OC,5.31 µM
20,COc1cccc(NC(=O)Nc2ccc3c(c2)nnn3C)c1,4.88 µM
21,O=C(Nc1ccc(-c2nc3cccnc3s2)cc1)c1ccc(Cl)nc1,2.11 µM
22,O=C(Nc1ccc(NC(=O)c2ccccc2F)cc1)c1cccs1,4.26 µM
23,CN(C(=O)c1cc2sccc2n1C)C1CCCCC1,> 35 µM (inactive)
24,ClCCn1cnc2c(SCc3ccccc3)ncnc21,3.64 µM
25,Cc1ccc(-n2nnc3ccccc3c2=O)cc1C,2.62 µM
26,Cc1ccc(-c2cc(-c3ccc(C)cc3O)[nH]n2)cc1,0.342 µM

row,Structure (SMILES),AC40
1,CCS(=O)(=O)N1Cc2ccccc2CC1C(=O)NCc1cccc(OC)c1 (stereo not given),> 35 µM (inactive)
2,C=CCN=C1S/C(=C\c2ccc(N(C)C)cc2)C(=O)N1CC=C,21.5 µM
3,COC(=O)/C(=C1\Oc2ccc(C(C)(C)C)cc2S1)C(F)(F)F,3.81 µM
4,Cc1ccc2c(c1N)C(=O)c1ccccc1C2=O,3.96 µM
5,O=C1OC(c2ccccc2)=C/C1=C/N1CCCCC1,2.12 µM
6,Cc1ccc(NC(=O)c2sc3nc(C)cc(C)c3c2N)cc1,0.205 µM
7,Oc1ccc(/C=N/Nc2cccc(Cl)n2)c(O)c1,0.584 µM
8,Nc1nc(COc2ccc3ccccc3c2)cs1,4.97 µM
9,O=C(N/N=C/c1ccsc1)c1ccc2c(c1)OCO2,3.33 µM
10,O=C(CNc1cccc(F)c1)N1CCc2ccccc2C1,4.43 µM
11,COc1ccc(NC(=O)CN(C)C(=O)CNC(=O)c2sc3ccccc3c2Cl)cc1,7.78 µM
12,CN(N=O)c1ccc(CC2CCc3ccccc32)cc1 (stereo not given),12.6 µM
13,CCn1c(C)nc2cc(C(=O)N/N=C(\C)c3ccccc3O)ccc21,3.48 µM
14,O=c1c2ccccc2oc2cc(-c3ccc4cc[nH]c4c3)ccc12,2.25 µM
15,O=C(Nc1ccc2c(c1)CCC2)C1CCCN(c2ncccn2)C1 (stereo not given),3.54 µM
16,COc1ccc2ccccc2c1/C=N/Nc1cccc(C(=O)O)c1,13.1 µM
17,COc1ccc(-c2nnn(Cc3ccccc3F)n2)cc1,2.14 µM
18,CS(=O)(=O)N1N=C(c2ccc(Br)cc2)CC1c1ccc2c(c1)OCO2 (stereo not given),2.95 µM
19,CC(C)(C)c1cc(NC(=O)Nc2ccccc2)no1,0.864 µM
20,CCn1c(/C=C/c2c[nH]c3ccccc23)nc2ccccc2c1=O,0.583 µM
21,CN(CC(=O)Nc1ccccc1Br)C(=O)c1cc2c(s1)CCCCC2,3.4 µM
22,CCC(=O)Nc1ccc(-c2ccc(N3CCC(C)CC3)nn2)cc1,4.63 µM
23,Cc1cc(C)c(NN=c2c(=O)c3ccccc3c2=O)c(C)c1,0.531 µM
24,Cc1ccc2c(Cl)c(C(=O)Nc3cccnc3)sc2c1,1.19 µM
25,COc1cccc(C(=O)Nc2ccc(NC(=O)C3CC3)cn2)c1,3.48 µM
26,COc1cc(OC)cc(-c2cc3cc(F)ccc3cn2)c1,1.71 µM

row,Structure (SMILES),AC40
1,O=C(c1nnc(-c2ccc(Cl)cc2)o1)C1CCCC1,10.3 µM
2,CCS(=O)(=O)Nc1ccc(C(=O)NCCSc2ccccc2)cc1,34.6 µM
3,Fc1ccccc1CSc1nnc(-c2ccccc2)o1,0.935 µM
4,Brc1ccc(/C=N/Nc2ccccc2)cc1,15.4 µM
5,c1ccc(-c2ccc3[nH]ccc3c2)cc1,14 µM
6,CC(C)c1ccc(/C=N/NC(=O)C2CCCC2)cc1,2.44 µM
7,COc1ccc(NC(=O)Nc2ccc(Br)cn2)cc1,3.15 µM
8,Cc1nc(C(=O)Nc2ccccc2)sc1C(=O)Nc1ccccc1,3.89 µM
9,O=C(Nc1ccc2ccccc2c1)c1cc(F)c(F)cc1Cl,1.86 µM
10,Cc1nc2cc3nc(C)sc3cc2s1,7.83 µM
11,C/C(=N\Nc1ccccn1)c1ccc(C(C)C)cc1,4.34 µM
12,O=C(Nc1ccc(C(F)(F)F)cc1)c1ccccc1,3.48 µM
13,CCCc1ccc(C(=O)NNc2ccccc2F)cc1,8.64 µM
14,O=C(c1cnn2ccccc12)N1CCc2ccccc21,1.28 µM
15,O=C(NCCc1c[nH]c2ccccc12)c1cc(Cl)c2c(c1)OCO2,17 µM
16,CCCCc1nc2cc(C(=O)N3CCN(c4nc(C)cnc4C)CC3)ccc2o1,> 35 µM (inactive)
17,Cc1ccccc1S(=O)(=O)/N=C(/Nc1nc2ccccc2s1)c1ccccc1,31 µM
18,c1ccc2nc(-c3nccs3)ccc2c1,8.94 µM
19,Cc1nn(CC(C)C)c(Cl)c1C(=O)NC1CCC(C)CC1 (stereo not given),2.63 µM
20,c1ccn(-c2ccc(-c3ccn[nH]3)cc2)c1,2.31 µM
21,CCC(C)NC(=O)c1cc(-c2ccc(OC)cc2)on1 (stereo not given),0.773 µM
22,CCn1cnc2cc(NCc3ccccc3Cl)ccc21,14.6 µM
23,O=C(Nc1ccc(N2CCCCC2)cc1)c1cncc(Br)c1,0.969 µM
24,CCn1c(C(=O)NC2CCC(C)CC2)cc2sccc21 (stereo not given),8.36 µM
25,Cc1[nH]n(-c2cccc(Cl)c2)c(=O)c1C=NCC(C)C,5.25 µM
26,O=C(Nc1ccccc1Cl)c1ccc2nccnc2c1,4.21 µM

row,Structure (SMILES),AC40
1,CC(C)(C)C(=O)N1CCN(c2nc3ccccc3s2)CC1,1.86 µM
2,Cc1nc(N2CCN(S(=O)(=O)c3ccccc3)CC2)c2cc(-c3ccccc3)sc2n1,22.9 µM
3,CCc1cccc(NC(=O)c2sc3nc4n(c(=O)c3c2C)CCC4)c1,4.55 µM
4,CCCCN(C(=O)Cc1cccs1)c1nnc(-c2cccnc2)s1,5.05 µM
5,CCCC(=O)Nc1nc(-c2ccccc2)ns1,4.23 µM
6,O=C(Nc1ccc(O)cc1)c1c(O)c2c([nH]c1=O)CCCC2,0.664 µM
7,Cc1ccnc(NC(=O)C2CC(=O)N(Cc3ccccc3)C2)c1 (stereo not given),5.34 µM
8,C/C(=N/NC(=O)c1ccncc1)c1ccc(NC(=O)c2ccc(Cl)cc2Cl)cc1,> 35 µM (inactive)
9,O=C(CCNc1ccccc1)c1ccc2c(c1)OCO2,1.12 µM
10,c1ccc(-c2noc(COc3ccc4c(c3)OCO4)n2)cc1,2.25 µM
11,COC(=O)c1ccc2[nH]c(C3(O)CCCCC3)c(C)c2c1,10.3 µM
12,Cc1ccc(-c2cn(-c3ccccc3)c(=S)[nH]2)cc1C,0.997 µM
13,Cc1nc2ccc(NC(=O)Cc3c(F)cccc3Cl)cc2s1,3.66 µM
14,COC(=O)c1c(C)[nH]c(/C=N/Nc2ccccc2)c1C,> 35 µM (inactive)
15,Cc1ccccc1Nc1nc(N)nc(COC(=O)c2ccccc2)n1,7.87 µM
16,COc1ccc2c(c1)CC/C2=N\OC(=O)c1ccccc1C,1.27 µM
17,Cc1ccc(Nc2nc(Cl)nc(NC(C)(C)C)n2)cc1,3.69 µM
18,Cn1cc(Br)c(C(=O)N/N=C/c2cc3c(cc2Cl)OCO3)n1,9.65 µM
19,c1ccc2c(c1)NC1(CCCC1)n1c-2nc2ccccc21,11.3 µM
20,Nc1ccccc1N=Nc1ccccc1N,27 µM
21,CN(c1ccc(O)cc1)c1nc(O)c(C2=c3ccccc3=NC2=O)s1,8.06 µM
22,CCCCNc1c(-c2ccc(-c3cccc(Cl)c3)cc2)nc2ccccn12,5.54 µM
23,COC(=O)c1cc(-c2ccc(OC)cc2)n[nH]1,6.21 µM
24,CCc1ccc(NC(=O)c2ccc3nc(N)sc3c2)cc1,5.39 µM
25,CCN(N=O)c1ccc(C=C2C=Cc3ccccc32)cc1,0.238 µM
26,CCN(CC)C(=O)CCc1nnc(Cc2cccc(C(F)(F)F)c2)o1,1.95 µM

row,Structure (SMILES),AC40
1,CC1(C)CC(=O)c2c(O)cc(OCc3ccc(Br)cc3)cc2O1,1.33 µM
2,O=C(O)c1ccc(-c2nc(-c3ccc(Cl)cc3)cs2)cc1,0.309 µM
3,Cc1ccccc1S(=O)(=O)Oc1ccc2ccc(O)cc2c1,25.7 µM
4,c1ccc2cc(C3CCCCC3)ncc2c1,29.4 µM
5,COc1cccc(/C(C)=N/N=C(\C)c2cccc(OC)c2)c1,3.27 µM
6,Oc1[nH]c2ccccc2c1C=Nc1ccccc1,5.55 µM
7,O=c1c2c(nc3cc(-c4ccc(Br)cc4)[nH]n13)CCCC2,0.286 µM
8,O=C(Nc1ccc2c(c1)OCO2)c1cc(-c2ccccc2Cl)on1,2.06 µM
9,CC1CCN(c2oc(-c3ccccc3Cl)nc2C#N)CC1,10.9 µM
10,Cc1ccc(N2C(=O)S/C(=C/c3cn(C)c4ccccc34)C2=O)cc1,6.5 µM
11,COc1cccc(C2Nc3ccccc3C(=O)N2c2ccc(F)cc2)c1O (stereo not given),23.8 µM
12,Cc1ccc(-n2nnc(-c3ccnc4ccccc34)n2)cc1,3.49 µM
13,O=C(NCCc1cccs1)c1ccc(Cl)c(Cl)c1,3.47 µM
14,COc1ccc(/C=N/N=C2/SCC(=O)N2Cc2ccccc2)cc1,2.67 µM
15,COC(=O)c1ccc(/C=N/Nc2nc(C)c(C)s2)cc1,1.5 µM
16,c1ccc(-c2noc(CCC3CCCC3)n2)cc1,4.35 µM
17,[O-]/[N+](=C\C=C\c1ccccc1)c1ccccc1,1.68 µM
18,O=C(Cc1ccccc1)Nc1nc(-c2cccs2)cs1,14.7 µM
19,c1cc(-c2cc3cc4c(cc3cn2)OCO4)cs1,2.12 µM
20,Cc1ccccc1-c1nc(Cc2ccccc2)no1,2.78 µM
21,COc1ccc(-c2noc(-c3cccc(OC)c3OC)n2)cc1OC,1.33 µM
22,Cc1cccc(-c2cc(N)n(-c3ccccc3)n2)c1,0.712 µM
23,COc1ccc(C(=O)CN2Cc3ccccc3C2=N)cc1,4.86 µM
24,Cc1ccc(C(=O)N(CCN2CCCCC2)CC2CCCN(C3CCCC3)C2)s1 (stereo not given),5.39 µM
25,O=S(=O)(Cc1cc(-c2ccccc2Cl)no1)c1ccccc1,9.76 µM
26,c1csc(-c2nc(N3CCCCC3)no2)c1,1.44 µM
